Test results reported in US7390873B2, “Antimicrobial cationic peptides” (University of British Columbia, priority 1995, dated 2008).
In brackets after ≈: the same amount, converted by molar mass. Like-named read-outs stand apart in the source and are kept apart here. Where a SMILES comes first, the peptide text is derived from it. Where no end group is shown, it is not given here. [ ]: non-standard residue; d: D form.

Columns and labels:
E. coli UB1005 = format: cell-based; conditions: for MIC E. coli: UB1005, 24 h
Procedure: (§1) Any of the art-known methods for measuring antimicrobial activity of peptides can be used in characterizing the peptides of the invention. In these examples, conventional methods were used to determine the minimal inhibitory concentration (MIC) of a peptide in a liquid medium (Amsterdam. Antibiotics in Laboratory Medicine, Williams and Wilkins, Baltimore (1991) 72-78). Briefly, overnight cultures of the test organisms (described below) were diluted to produce an inoculum containing approximately 10^4 to 10^5 organisms. The inoculum size was confirmed by counting the number of organisms on plates that were inoculated at the same time as the liquid cultures.
(§2) The concentration of peptide was measured by assaying for free amino groups using a dinitrophenylation assay, with polymyxin B serving as a standard. Doubling dilutions of peptide were performed (32 μg/ml-0.25 μg/ml) in 100 μl volumes in a 96-well mictrotiter plate, and all wells were subsequently inoculated with the diluted culture of the test organism. After 24 hours of incubation at 37° C., the assay was read. The MIC value is the concentration of peptide at which the growth of the test organism was reduced by 50%. The number of cells in the culture inoculum was calculated from the plate count after incubating the plate for 24 hours at 37° C. The medium used for cell culture and dilution in this assay was Luria broth (LB). Each peptide was tested three times against each organism, and the MIC values presented below are the mean values of the three experiments.

[1] = test system: Pseudomonas aeruginosa K799; format: cell-based; conditions: for MIC P. aeruginosa: K799, 24 h
Procedure: as §1, §2

[2] = test system: Staphylococcus aureus RN4220; format: cell-based; conditions: for MIC S. aureus: RN4220, 24 h
Procedure: as §1, §2

[3] = test system: Staphylococcus epidermidis C621; format: cell-based; conditions: for MIC S. epidermidis: C621, 24 h
Procedure: as §1, §2

Candida albicans C627 = format: cell-based; conditions: for MIC C. albicans: C627, 24 h
[4] = test system: all of the organisms tested; test: MIC assay, summary over the organisms tested; format: cell-based; conditions: range over organisms
Procedure: as §1
as §2, with “The medium used for cell culture and dilution in this assay was Luria broth (LB). Each peptide was tested three times against each organism, and the MIC values presented below are the mean values of the three experiments.” left out
MIC values also were determined for various derivatives of indolicidin, CP-11, and CP-13. […]

human red blood cells = test: Lysis of red blood cells; format: cell-based
Procedure: Freshly collected human blood was mixed with heparin and centrifuged to remove the buffy coat. The resulting erythrocytes were washed three times in 0.85% saline and stored at 4° C. Serial dilutions of the peptides in saline were prepared in round bottomed microtitre plates using 100 μl volumes. Red blood cells were diluted with saline to 1/25 of the packed volume of cells and 50 μl of red blood cells were added to each well. Plates were incubated while rocking at 37° C., and the concentration of peptide required for red blood cell lysis of more than 80% of cells (i.e., visible lysis) was determined at 4 and 24 hours (Table 7).

[5] = Mortality after injection of peptide in mice; format: in vivo; conditions: 200 μg peptide IP
Procedure: The ability of indolicidin and variants to protect against LPS-induced endotoxemia was assessed in vivo. Mice (8-10 weeks old) were injected intraperitoneally (IP) with 20 mg D-galactosamine (Dgal) to sensitive them to LPS according to the model of Galanos (Galanos, C., M. A., Freudenberg and W. Reutter, 1979, Galactosamine sensitization to the lethal effects of endotoxin. Proc. Natl. Acad. Sci. USA 76:5939), followed by 200 μg peptide in 100 μl. Immediately afterwards LPS (10 μg) in 100 μl was injected. The mice were observed 24 hours after injections and survivors noted. […] When Dgal and LPS were also injected, that 200 μg of indolicidin reduced mortality reduced at 24 hours from 100% in controls to 60%.

[6] = Dansyl polymyxin B (DPX) displacement assay; format: binding, P. aeruginosa; conditions: concentration at which 50% of the maximal DPX was displaced from the LPS; read-out: I50 of DPX displacement
Procedure: Peptides that bind lipopolysaccharide are thought to potentially function as anti-endotoxins. The binding of various CP peptides to P. aeruginosa H103 lipopolysaccharide (LPS) was measured in a dansyl polymyxin B (DPX) displacement assay as described by Moore et al. (AAC, 26 (1986) 496-500). […] Purified LPS was saturated with DPX by titrating LPS with samples of DPX until maximum fluorescence was reached. Fluorescence was measured in a Perkin-Elmer 650-10S fluorescence spectrophotometer and displacement of DPX was measured as a decrease in fluorescence upon the addition of an antimicrobial peptide.
Each peptides I50 value, which is the concentration at which 50% of the maximal DPX was displaced from the LPS, is shown. Also shown is the Imax value, which represents the maximum displacement of […] expressed as a percentage, where 100% indicates displacement of all bound DPX.

## CC[C@H](C)[C@H](N)C(=O)N[C@@H](CC(C)C)C(=O)N[C@@H](CCCCN)C(=O)N[C@@H](CCCCN)C(=O)N[C@@H](Cc1c[nH]c2ccccc12)C(=O)N1CCC[C@H]1C(=O)N[C@@H](Cc1c[nH]c2ccccc12)C(=O)N[C@@H](Cc1c[nH]c2ccccc12)C(=O)N1CCC[C@H]1C(=O)N[C@@H](Cc1c[nH]c2ccccc12)C(=O)N[C@@H](CCCNC(=N)N)C(=O)N[C@@H](CCCNC(=N)N)C(=O)N[C@@H](CCCCN)C(=O)OC [CP-11C] (H-ILKKWPWWPWRRK-OMe)
E. coli UB1005
  MIC E. coli: 2 mg/L (≈ 1.06 µM)
[1]
  MIC P. aeruginosa: 8 mg/L (≈ 4.22 µM)
[2]
  MIC S. aureus: 8 mg/L (≈ 4.22 µM)
[3]
  MIC S. epidermidis: 1 mg/L (≈ 0.528 µM)
Candida albicans C627
  MIC C. albicans: 8 mg/L (≈ 4.22 µM)
[4]
  MIC values for all of the organisms tested: 1 to 8 mg/L
Human red blood cells
  Lowest concentration causing lysis, 4 hours: >128 µg/mL
  Lowest concentration causing lysis, 24 hours: 64 µg/mL

## CC[C@@H](C)[C@@H](N)C(=O)N[C@@H](CC(C)C)C(=O)N[C@@H](CCCCN)C(=O)N[C@@H](CCCCN)C(=O)N[C@@H](Cc1c[nH]c2ccccc12)C(=O)N1CCC[C@H]1C(=O)N[C@@H](Cc1c[nH]c2ccccc12)C(=O)N[C@@H](Cc1c[nH]c2ccccc12)C(=O)N1CCC[C@H]1C(=O)N[C@@H](Cc1c[nH]c2ccccc12)C(=O)N[C@@H](CCCNC(=N)N)C(=O)N[C@@H](CCCNC(=N)N)C(=O)N[C@@H](CCCCN)C(=O)OC [CP-11DC] (H-[dI]LKKWPWWPWRRK-OMe; N-terminus assumed)
E. coli UB1005
  MIC E. coli: 4 mg/L (≈ 2.11 µM)
[1]
  MIC P. aeruginosa: 4 mg/L (≈ 2.11 µM)
[2]
  MIC S. aureus: 4 mg/L (≈ 2.11 µM)
[3]
  MIC S. epidermidis: 2 mg/L (≈ 1.06 µM)
Candida albicans C627
  MIC C. albicans: 8 mg/L (≈ 4.22 µM)

## CC[C@@H](C)[C@@H](N)C(=O)N[C@@H](CC(C)C)C(=O)N[C@@H](CCCCN)C(=O)N[C@@H](CCCCN)C(=O)N[C@@H](Cc1c[nH]c2ccccc12)C(=O)N1CCC[C@H]1C(=O)N[C@@H](Cc1c[nH]c2ccccc12)C(=O)N[C@@H](Cc1c[nH]c2ccccc12)C(=O)N1CCC[C@H]1C(=O)N[C@@H](Cc1c[nH]c2ccccc12)C(=O)N[C@@H](CCCNC(=N)N)C(=O)N[C@@H](CCCNC(=N)N)C(=O)N[C@@H](CCCCN)C(=O)O [CP-11D] (H-[dI]LKKWPWWPWRRK-OH)
E. coli UB1005
  MIC E. coli: 4 mg/L (≈ 2.13 µM)
[1]
  MIC P. aeruginosa: 4 mg/L (≈ 2.13 µM)
[2]
  MIC S. aureus: 4 mg/L (≈ 2.13 µM)
[3]
  MIC S. epidermidis: 2 mg/L (≈ 1.06 µM)
Candida albicans C627
  MIC C. albicans: 8 mg/L (≈ 4.25 µM)
[5]
  Mortality after injection of peptide: did not cause mortality

## CC[C@H](C)[C@H](N)C(=O)N[C@@H](CC(C)C)C(=O)N1CCC[C@H]1C(=O)N[C@@H](Cc1c[nH]c2ccccc12)C(=O)N[C@@H](CCCCN)C(=O)N[C@@H](Cc1c[nH]c2ccccc12)C(=O)N1CCC[C@H]1C(=O)N[C@@H](Cc1c[nH]c2ccccc12)C(=O)N[C@@H](Cc1c[nH]c2ccccc12)C(=O)N1CCC[C@H]1C(=O)N[C@@H](Cc1c[nH]c2ccccc12)C(=O)N[C@@H](CCCNC(=N)N)C(=O)N[C@@H](CCCNC(=N)N)C(=O)OC [Indolicidin-C]
E. coli UB1005
  MIC E. coli: 4 mg/L (≈ 2.08 µM)
[1]
  MIC P. aeruginosa: >32 mg/L
[2]
  MIC S. aureus: 4 mg/L (≈ 2.08 µM)
[3]
  MIC S. epidermidis: 1 mg/L (≈ 0.52 µM)
Candida albicans C627
  MIC C. albicans: >32 mg/L
Human red blood cells; lysis of more than 80% of cells (visible lysis), 37° C., 4 hours
  Lowest concentration causing lysis, 4 hours: 32 µg/mL
Human red blood cells; lysis of more than 80% of cells (visible lysis), 37° C., 24 hours
  Lowest concentration causing lysis, 24 hours: 32 µg/mL

## CC[C@@H](C)[C@@H](N)C(=O)N[C@@H](CC(C)C)C(=O)N1CCC[C@H]1C(=O)N[C@@H](Cc1c[nH]c2ccccc12)C(=O)N[C@@H](CCCCN)C(=O)N[C@@H](Cc1c[nH]c2ccccc12)C(=O)N1CCC[C@H]1C(=O)N[C@@H](Cc1c[nH]c2ccccc12)C(=O)N[C@@H](Cc1c[nH]c2ccccc12)C(=O)N1CCC[C@H]1C(=O)N[C@@H](Cc1c[nH]c2ccccc12)C(=O)N[C@@H](CCCNC(=N)N)C(=O)N[C@@H](CCCNC(=N)N)C(=O)OC [Indolicidin-DC]
E. coli UB1005
  MIC E. coli: 4 mg/L (≈ 2.08 µM)
[1]
  MIC P. aeruginosa: >32 mg/L
[2]
  MIC S. aureus: 8 mg/L (≈ 4.16 µM)
[3]
  MIC S. epidermidis: 2 mg/L (≈ 1.04 µM)
Candida albicans C627
  MIC C. albicans: >32 mg/L

## CC[C@@H](C)[C@@H](N)C(=O)N[C@@H](CC(C)C)C(=O)N1CCC[C@H]1C(=O)N[C@@H](Cc1c[nH]c2ccccc12)C(=O)N[C@@H](CCCCN)C(=O)N[C@@H](Cc1c[nH]c2ccccc12)C(=O)N1CCC[C@H]1C(=O)N[C@@H](Cc1c[nH]c2ccccc12)C(=O)N[C@@H](Cc1c[nH]c2ccccc12)C(=O)N1CCC[C@H]1C(=O)N[C@@H](Cc1c[nH]c2ccccc12)C(=O)N[C@@H](CCCNC(=N)N)C(=O)N[C@@H](CCCNC(=N)N)C(=O)O [Indolicidin-D]
E. coli UB1005
  MIC E. coli: 8 mg/L (≈ 4.19 µM)
[1]
  MIC P. aeruginosa: >32 mg/L
[2]
  MIC S. aureus: 4 mg/L (≈ 2.1 µM)
[3]
  MIC S. epidermidis: 2 mg/L (≈ 1.05 µM)
Candida albicans C627
  MIC C. albicans: >32 mg/L
[5]
  Mortality after injection of peptide: did not cause mortality

## CC[C@H](C)[C@H](N)C(=O)N[C@@H](CC(C)C)C(=O)N1CCC[C@H]1C(=O)N[C@@H](Cc1c[nH]c2ccccc12)C(=O)N[C@@H](CCCCN)C(=O)N[C@@H](Cc1c[nH]c2ccccc12)C(=O)N1CCC[C@H]1C(=O)N[C@@H](Cc1c[nH]c2ccccc12)C(=O)N[C@@H](Cc1c[nH]c2ccccc12)C(=O)N1CCC[C@H]1C(=O)N[C@@H](Cc1c[nH]c2ccccc12)C(=O)N[C@@H](CCCNC(=N)N)C(=O)N[C@@H](CCCNC(=N)N)C(=O)O [Indolicidin-R, reference compound]
E. coli UB1005
  MIC E.coli UB1005: 32 mg/L (≈ 16.8 µM)
[1]
  MIC P. aeruginosa K799: >32 mg/L
[2]
  MIC S. aureus RN4220: 16 mg/L (≈ 8.39 µM)
[3]
  MIC S. epidermidis C621: 16 mg/L (≈ 8.39 µM)
Candida albicans C627
  MIC C. albicans C627: >32 mg/L

## [Mg+2] [Mg^2+ ions, Mg^2+]
[6]
  IC50: ~620 µM

## FFKKFPFFPFRRK [CP-24]
E. coli UB1005
  MIC E. coli: 8 mg/L
[1]
  MIC P. aeruginosa: 32 mg/L
[2]
  MIC S. aureus: 8 mg/L

## ILKKWPWWPWKWKK [CP-13]
E. coli UB1005
  MIC E. coli: 8 mg/L
[1]
  MIC P. aeruginosa: >32 mg/L
[2]
  MIC S. aureus: >32 mg/L
[3]
  MIC S. epidermidis: 4 mg/L
Candida albicans C627
  MIC C. albicans: >32 mg/L
Human red blood cells
  Lowest concentration causing lysis, 4 hours: >128 µg/mL
  Lowest concentration causing lysis, 24 hours: 128 µg/mL

## ILKKWPWWPWRRK-NH2 [CP-11N]
E. coli UB1005
  MIC E. coli: 1 mg/L
[2]
  MIC S. aureus: >32 mg/L
[3]
  MIC S. epidermidis: 8 mg/L

## ILPWKKWPWWRWRR [CP-3R]
E. coli UB1005
  MIC E.coli UB1005: 8 mg/L
[1]
  MIC P. aeruginosa K799: 8 mg/L
[2]
  MIC S. aureus RN4220: 8 mg/L
[3]
  MIC S. epidermidis C621: 4 mg/L
Candida albicans C627
  MIC C. albicans C627: > 32 mg/L
Candida albicans C627; purified recombinant peptide, C. albicans C627
  Partial killing observed in dilutions down to: 8 µg/mL

## ILPWKWPWYVRR [CP-IA]
E. coli UB1005
  MIC E. coli: >32 mg/L
[1]
  MIC P. aeruginosa: >32 mg/L
[2]
  MIC S. aureus: >32 mg/L
[3]
  MIC S. epidermidis: >32 mg/L
Candida albicans C627
  MIC C. albicans: >32 mg/L
